# Data reported in publication PMC5917010, “Structural basis for GPR40 allosteric agonism and incretin stimulation” (Nature Communications, 2018).
# Columns and labels:
# human GPR40 (A1 site) = biological target: T1, human GPR40 (A1 site) (Homo sapiens, UniProt O14842); assay: A1 site radioligand binding with [3H]-TAK-875
# T1 construct: full length recombinant human GPR40 (GPR40) cDNA; expressed in transfected cells; host or cells: HEK 293, stably transfected; crude cell surface membranes
# Procedure: Crude cell surface membranes were prepared from human embryonic kidney 293 (HEK 293) cells stably transfected (for the wild type) or transiently transfected (for the mutants and corresponding wild type) with full length recombinant human GPR40 (GPR40) cDNA, using differential centrifugation methods.
# A1 Site Binding. 10 µL of compound diluted in 100% DMSO and 90 µL of Assay Buffer (50 mM Tris-HCl, pH 7.5, 5 mM CaCl2, 5 mM MgCl2, 0.1% w/v fatty acid-free BSA) were added to a deep 96-well polypropylene assay plate (Beckman Coulter).
# Assays were terminated by filtration through GF/C glass fiber filtermats (Perkin Elmer) presoaked in 50 mM Tris–HCl, pH 7.5, using a Mach III cell harvester (TomTec). Filtermats were washed two times with 5 mL of ice-cold 50 mM Tris–HCl, pH 7.5 buffer, dried 1 h in a convection oven at 60 °C and embedded with Meltilex A solid scintillant (Perkin Elmer). Radioactivity was determined as counts per min (cpm) using a Trilux Microbeta plate scintillation counter (Perkin Elmer).
# wild type ICR mice = assay: Intraperitoneal glucose tolerance test (IPGTT) in wild type ICR mice; assay type: in vivo, mouse; conditions: various oral doses
# Procedure: (§1) Nine to ten week old male ICR mice (Envigo) and GPR40 KO mice (Taconic) were used. The day before an IPGTT (~1600), animals were fasted in clean cages. The following morning (~0800), animals were randomized on fasting glucose and body weight (N = 6 per group). Mice were orally administered a test article or vehicle 60 min prior to an intraperitoneal (IP) injection of glucose (2g/kg). Blood glucose levels were determined by a glucometer from tail bleeds taken at 0, 15, 30, 60, and 120 min after the glucose challenge. An average of two readings were reported at each time point. Also, blood samples were collected into serum tubes at 0, 3, 6, and 15 min post glucose injection for insulin measurement. Serum tubes were centrifuged at 3000g for 5 min and serum transferred into 96-well plates for insulin analysis by a Mesoscale rat/mouse insulin assay.
# [1] = tested on: GPR40 knock-out (KO) mice; assay: IPGTT in GPR40 knock-out mice; assay type: in vivo, mouse; conditions: high dose of compound 1
# Procedure: as §1
# GPR120 KO mice = assay: OGTT in GPR120 KO mice; assay type: in vivo, mouse; conditions: 5 mg/kg
# Procedure: Eight to thirteen week old male C57BL/6 or KO mice were used. The day before the study, at 1600 hours, animals were transferred into clean cages and food was removed. The following morning (~0800 hours), mice were randomized by block randomization to treatment groups (N = 5–7 per group) so each group had similar mean and standard deviation of body weight and blood glucose. […] Animals were dosed with vehicle (0.5% MC/0.25% Tween-80) or the test article by oral gavage. Group allocations were not blinded from the experimenters who collected the data. After 60 min compound treatment animals were then given an oral gavage of glucose (2 g/kg). At 0, 15, 30, 60, and 120 min post oral glucose, two glucose readings via glucometers were obtained. The average of two glucose readings was reported at each time point. Data were expressed as mean±standard error (s.e.m.). Blood glucose values were analyzed using ANOVA with repeated measures. Cook’s distance was also calculated from linear regression. All animals were included in the analysis with their individual averaged Cook’s distance < 1. Dunnett’s comparison was performed at each time point by R program. Significance is denoted at p < 0.05.
# human GPR40 [2] = biological target: T2, human GPR40 (Homo sapiens, UniProt O14842); assay: Human GPR40 Calcium (Supplementary Table 1); assay type: cell-based
# T2 construct: HEK293 cells stably overexpressing full length human GPR40; expressed in transfected cells
# T2 sequence (O14842 whole entry): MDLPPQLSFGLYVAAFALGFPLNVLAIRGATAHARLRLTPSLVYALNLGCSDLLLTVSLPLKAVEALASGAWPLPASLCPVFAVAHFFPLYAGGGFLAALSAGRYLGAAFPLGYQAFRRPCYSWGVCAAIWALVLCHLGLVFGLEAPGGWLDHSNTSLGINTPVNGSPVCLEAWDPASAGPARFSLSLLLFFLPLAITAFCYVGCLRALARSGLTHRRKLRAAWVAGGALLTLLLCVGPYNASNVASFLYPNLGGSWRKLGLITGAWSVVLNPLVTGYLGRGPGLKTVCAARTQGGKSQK
# human GPR40 [3] = biological target: T2, human GPR40; assay: Human GPR40 IP1; assay type: cell-based
# hRXRalpha = hRXRalpha (Homo sapiens, UniProt P19793); assay: hRXRalpha binding
# hRXRalpha, sequence (P19793 whole entry): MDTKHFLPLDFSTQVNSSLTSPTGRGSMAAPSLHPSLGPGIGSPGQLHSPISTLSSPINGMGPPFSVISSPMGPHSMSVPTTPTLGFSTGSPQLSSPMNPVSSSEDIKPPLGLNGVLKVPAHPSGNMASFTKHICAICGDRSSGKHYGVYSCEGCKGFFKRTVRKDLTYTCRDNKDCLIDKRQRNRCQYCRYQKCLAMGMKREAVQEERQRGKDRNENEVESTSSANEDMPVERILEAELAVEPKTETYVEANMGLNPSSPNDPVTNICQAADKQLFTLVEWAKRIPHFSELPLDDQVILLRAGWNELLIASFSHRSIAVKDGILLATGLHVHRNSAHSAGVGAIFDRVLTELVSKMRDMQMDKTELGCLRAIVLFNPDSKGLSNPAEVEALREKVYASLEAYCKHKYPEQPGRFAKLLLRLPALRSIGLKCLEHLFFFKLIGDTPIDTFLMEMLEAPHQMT
# hRORalpha = hRORalpha (Homo sapiens, UniProt P35398); assay: hRORalpha binding
# hRORalpha, sequence (P35398 whole entry): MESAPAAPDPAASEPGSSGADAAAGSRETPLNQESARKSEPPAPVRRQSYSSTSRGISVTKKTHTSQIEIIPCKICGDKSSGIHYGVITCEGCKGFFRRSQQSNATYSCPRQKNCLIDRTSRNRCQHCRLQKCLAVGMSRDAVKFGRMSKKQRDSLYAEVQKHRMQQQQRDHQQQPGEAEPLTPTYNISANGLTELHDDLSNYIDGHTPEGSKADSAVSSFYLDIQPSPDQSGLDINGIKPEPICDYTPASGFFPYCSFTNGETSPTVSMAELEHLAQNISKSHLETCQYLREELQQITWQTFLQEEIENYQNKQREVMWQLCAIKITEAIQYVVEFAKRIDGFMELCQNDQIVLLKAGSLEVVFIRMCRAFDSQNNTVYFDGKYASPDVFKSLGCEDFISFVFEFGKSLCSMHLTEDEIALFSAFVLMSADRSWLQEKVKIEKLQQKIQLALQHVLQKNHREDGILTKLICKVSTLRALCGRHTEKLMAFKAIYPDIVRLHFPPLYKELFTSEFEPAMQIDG
# hRORbeta = hRORbeta (Homo sapiens, UniProt Q92753); assay: hRORbeta binding
# hRORbeta, sequence (Q92753 whole entry): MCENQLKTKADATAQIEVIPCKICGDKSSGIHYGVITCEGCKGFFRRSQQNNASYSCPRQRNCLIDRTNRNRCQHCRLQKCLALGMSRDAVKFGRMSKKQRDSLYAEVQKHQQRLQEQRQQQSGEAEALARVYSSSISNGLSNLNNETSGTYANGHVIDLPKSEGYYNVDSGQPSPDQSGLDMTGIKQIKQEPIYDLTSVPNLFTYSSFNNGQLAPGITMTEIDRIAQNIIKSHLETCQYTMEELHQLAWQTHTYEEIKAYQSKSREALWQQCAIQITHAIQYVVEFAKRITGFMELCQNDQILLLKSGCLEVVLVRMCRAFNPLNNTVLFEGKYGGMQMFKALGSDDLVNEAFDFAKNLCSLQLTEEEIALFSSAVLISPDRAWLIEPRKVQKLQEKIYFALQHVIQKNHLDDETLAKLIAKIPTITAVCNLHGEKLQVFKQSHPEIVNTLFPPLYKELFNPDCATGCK
# hGLUCR = hGLUCR (Homo sapiens, UniProt P47871); assay: hGLUCR binding
# hGLUCR, sequence (P47871 26-477): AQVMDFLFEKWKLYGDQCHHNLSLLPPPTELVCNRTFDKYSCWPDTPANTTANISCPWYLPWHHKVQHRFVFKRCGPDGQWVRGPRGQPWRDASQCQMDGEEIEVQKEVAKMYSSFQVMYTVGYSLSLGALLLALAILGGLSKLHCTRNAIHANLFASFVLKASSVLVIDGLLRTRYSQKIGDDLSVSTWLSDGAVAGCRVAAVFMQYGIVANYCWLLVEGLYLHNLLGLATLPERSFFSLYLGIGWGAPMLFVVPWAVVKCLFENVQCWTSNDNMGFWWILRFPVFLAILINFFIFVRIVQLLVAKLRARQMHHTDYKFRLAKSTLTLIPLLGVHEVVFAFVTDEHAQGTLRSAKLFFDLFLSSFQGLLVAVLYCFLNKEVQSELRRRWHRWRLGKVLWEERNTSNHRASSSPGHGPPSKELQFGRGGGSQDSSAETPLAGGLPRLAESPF
# hM1 = hM1 (Homo sapiens, UniProt P11229); assay: hM1 binding; conditions: read-out: hM1 binding Rel IC50
# hM1, sequence (P11229 whole entry): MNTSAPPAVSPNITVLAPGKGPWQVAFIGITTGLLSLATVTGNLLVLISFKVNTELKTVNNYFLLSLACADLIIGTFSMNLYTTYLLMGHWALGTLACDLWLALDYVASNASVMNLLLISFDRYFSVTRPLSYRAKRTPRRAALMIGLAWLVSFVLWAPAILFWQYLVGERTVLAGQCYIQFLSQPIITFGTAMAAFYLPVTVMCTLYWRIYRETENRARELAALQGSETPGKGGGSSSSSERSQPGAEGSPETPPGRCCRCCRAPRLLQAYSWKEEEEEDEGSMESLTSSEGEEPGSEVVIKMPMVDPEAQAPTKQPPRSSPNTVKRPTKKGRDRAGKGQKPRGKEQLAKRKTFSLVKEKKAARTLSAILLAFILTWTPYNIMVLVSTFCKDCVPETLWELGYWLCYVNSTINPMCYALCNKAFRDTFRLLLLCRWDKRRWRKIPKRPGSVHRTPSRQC
# hCDK1 = hCDK1 (Homo sapiens, UniProt P06493); assay: hCDK1 binding
# hCDK1, sequence (P06493 whole entry): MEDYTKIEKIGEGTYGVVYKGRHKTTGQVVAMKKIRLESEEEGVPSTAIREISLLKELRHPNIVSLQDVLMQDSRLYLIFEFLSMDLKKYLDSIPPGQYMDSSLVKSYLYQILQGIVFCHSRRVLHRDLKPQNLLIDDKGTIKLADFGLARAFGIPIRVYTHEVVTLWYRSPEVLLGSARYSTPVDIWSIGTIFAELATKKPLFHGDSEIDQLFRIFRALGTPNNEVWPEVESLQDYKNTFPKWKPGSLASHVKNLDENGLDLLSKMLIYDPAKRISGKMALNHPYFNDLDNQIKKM
# hCDK1, sequence (P14635 whole entry partner): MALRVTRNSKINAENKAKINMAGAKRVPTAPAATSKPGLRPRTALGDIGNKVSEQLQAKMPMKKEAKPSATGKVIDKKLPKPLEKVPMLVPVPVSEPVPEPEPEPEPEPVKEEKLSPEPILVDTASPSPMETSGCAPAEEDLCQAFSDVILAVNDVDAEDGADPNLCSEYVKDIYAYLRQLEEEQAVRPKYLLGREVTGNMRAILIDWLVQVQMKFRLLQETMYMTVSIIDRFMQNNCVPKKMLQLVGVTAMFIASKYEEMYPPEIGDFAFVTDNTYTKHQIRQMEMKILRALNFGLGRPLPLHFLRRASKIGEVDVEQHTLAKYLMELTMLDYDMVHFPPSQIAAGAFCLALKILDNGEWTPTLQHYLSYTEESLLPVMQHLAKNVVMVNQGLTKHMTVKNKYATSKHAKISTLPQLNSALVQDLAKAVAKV
# hCDK2 = hCDK2 (Homo sapiens, UniProt P24941); assay: hCDK2 binding
# [4] = Mouse hepatocyte clearance; assay type: in vitro ADME; conditions: hepatocytes
# Rat hepatocyte clearance = assay type: in vitro ADME; conditions: hepatocytes
# PPAR = PPAR binding and functional assays at multiple concentrations; conditions: all PPAR binding and functional assays
# [5] = tested on: GPCRs (including GPR120), NHRs and Kinases; assay: Selectivity panels against GPCRs, NHRs and Kinases
# GPR40 Y44F = GPR40 Y44F (Homo sapiens, UniProt O14842, Y44F); assay: cAMP accumulation assay, Y44F mutant
# GPR40 Y44F, sequence (O14842 whole entry Y44F): as the sequence (O14842 whole entry) above, with Y44F counted along it
# Procedure: (§2) HEK293 cells transiently transfected with Promega’s cAMP response element (CRE/luc2P) and a GPR40 construct were plated (40K cells/well) into 96-well microtiter plates using Dulbecco’s Modified Eagle’s Medium (DMEM) supplemented with 10% FBS, 20 mM HEPES, pH 7.4, 100 U/mL Penicillin, 100 µg/mL Streptomycin, and 800 µg/mL Geneticin. Test compounds were serially diluted three-fold in 100% DMSO and immediately diluted in media. […] EC50 values were calculated using a four-parameter logistic curve fitting equation.
# GPR40 L112A = GPR40 L112A (Homo sapiens, UniProt O14842, L112A); assay: cAMP accumulation assay, L112A mutant
# GPR40 L112A, sequence (O14842 whole entry L112A): as the sequence (O14842 whole entry) above, with L112A counted along it
# Procedure: as §2
# GPR40 L112F = GPR40 L112F (Homo sapiens, UniProt O14842, L112F); assay: cAMP accumulation assay, L112F mutant
# GPR40 L112F, sequence (O14842 whole entry L112F): as the sequence (O14842 whole entry) above, with L112F counted along it
# Procedure: as §2
# WT GPR40 = WT GPR40 (Homo sapiens, UniProt O14842); assay: cAMP accumulation assay (CRE/luc2P), wild type GPR40
# WT GPR40, sequence (O14842 whole entry): as the sequence (O14842 whole entry) above
# Procedure: as §2
# T1 sequence (O14842 whole entry): as above
smiles,measurement,setting,value
COc1ccc(C(=O)N(CC(C)(C)C)c2cccc(C)n2)c(N2CCC(c3cc4ccc([C@@H](CC(=O)O)C5CC5)cc4o3)CC2)c1 [compound 1],Ki,human GPR40 (A1 site); Supplementary Table 1,> 5.59 µM
same,effect on [3H]-TAK-875 binding,"human GPR40 (A1 site); addition of unlabeled compound, membranes from stably transfected cells",enhanced binding activity
same,affinity modulation factor (α),"human GPR40 (A1 site); allosteric modulator titration equation, [3H]-TAK-875 binding, Fig. 1a",2.4
same,glucose excursion in IPGTT,wild type ICR mice,decreases in glucose excursion
same,insulin secretion in IPGTT,wild type ICR mice,Dose-dependent increases in insulin secretion
same,"glucose lowering in IPGTT, GPR40 KO",[1],not observed
same,"insulin secretion in IPGTT, GPR40 KO",[1],not observed
same,"glucose excursion in OGTT, GPR120 KO",GPR120 KO mice,significant decrease in glucose excursion
same,Emax,human GPR40 [2],110%
same,EC50,human GPR40 [3],< 0.05 nM
same,Emax,human GPR40 [3],484%
same,Ki,hRXRalpha,> 10 µM
same,Ki,hRORalpha,> 20 µM
same,Ki,hRORbeta,> 13 µM
same,Ki,hGLUCR,> 10 µM
same,IC50,hM1,> 10 µM
same,IC50,hCDK1,> 20 µM
same,IC50,hCDK2,> 20 µM
same,recovery,"[4]; no ABT, read-out: Mouse Hepatocyte Clearance no ABT % Recovery",103%
same,hepatocyte CLint,"[4]; no ABT, read-out: Mouse Hepatocyte Clearance no ABT Intrinsic Clearance",9.2 µL/min/1e6 cells
same,recovery,"[4]; with ABT (concentration not stated), read-out: Mouse Hepatocyte Clearance ABT % Recovery",92.8%
same,hepatocyte CLint,"[4]; with ABT, read-out: Mouse Hepatocyte Clearance ABT Intrinsic Clearance",12.4 µL/min/1e6 cells
same,recovery,"Rat hepatocyte clearance; no ABT, read-out: Rat Hepatocyte Clearance no ABT % Recovery",103%
same,hepatocyte CLint,"Rat hepatocyte clearance; no ABT, read-out: Rat Hepatocyte Clearance no ABT Intrinsic Clearance",12.2 µL/min/1e6 cells
same,recovery,"Rat hepatocyte clearance; with ABT (concentration not stated), read-out: Rat Hepatocyte Clearance ABT % Recovery",92.8%
same,hepatocyte CLint,"Rat hepatocyte clearance; with ABT, read-out: Rat Hepatocyte Clearance ABT Intrinsic Clearance",3 µL/min/1e6 cells
same,PPAR binding or functional activities,PPAR,lack of significant PPAR binding or functional activities
same,selectivity in selectivity panels,[5],highly selective
same,EC50,GPR40 Y44F,> 30 µM
same,EC50,GPR40 L112A,> 30 µM
same,EC50,GPR40 L112F,0.06 µM
same,improvement in EC50 in L112F mutant over wild type,"GPR40 L112F; cAMP accumulation, 240 min",3 fold
same,EC50,"WT GPR40; cAMP accumulation EC50, GPR40-Gαs signaling, stably transfected cells, Fig. 1c, n = 6",~0.126 µM
same,EC50,"WT GPR40; cAMP accumulation EC50, WT, Fig. 6c-e, n = 3",0.21 µM
